Measured values from patent US20140343480A1, “SYSTEMS, METHODS, AND COMPOSITIONS FOR CROSS-LINKING” (AVEDRO, INC., priority 2013, published 2014).
≈ marks a conversion by molar mass, not a printed value. Values belong to the molecule of their own block, whether it stands above or below them.

Experiments:
human serum albumin = human serum albumin (Homo sapiens, UniProt P02768); settings: irradiated in the presence of human serum albumin; cited from earlier work
corneal collagen [1] = assay: Papain digest fluorescence of corneal flaps (collagen cross-linking); design: species or system Pig; settings: for fluorescence (relative to the untreated controls, Fo) recorded at 450 nm: 1% solution in dH2O; for fluorescence of the digested corneas in the area 450 nm: 20 min soak, 30 mW/cm^2, 4 min continuous UVA, vs non-cross-linked control; for fluorescence of the corneal samples after digestion with papain (excitation 360 nm): 30 mW/cm^2, pulsed 1 s on/1 s off, 8 min, oxygen, vs controls not exposed to UV
Procedure: Corneas were pan-corneally irradiated with a top hat beam (3% root mean square) for 8 minutes (7.2 J total dose) in a cylinder filled with oxygen with 365-nm light source (pulsing 1 second on, 1 second off) (UV LED NCSU033B[T]; Nichia Co., Tokushima, Japan) at the chosen irradiance (30 mW/cm^2) which was measured with a power sensor (model PD-300-UV; Ophir, Inc., Jerusalem, Israel) at the corneal surface. Before the start of irradiation, oxygen's exposure was 2 minutes. Corneal flaps (approximately 200 μm thick) were excised from the eyes with aid of Intralase femtosecond laser (Abbot Medical Optics, Santa Ana, Calif.). The average thickness of the corneal flaps was calculated as a difference between the measurements before and after the excision from the eyes with an ultrasonic Pachymeter (DGH Technology, Exton, Pa.). The flaps were washed with distilled water two times, dried with filter paper, washed with dH2O two times, and then dried in a vacuum until the weight change became less than 10% (Rotary vane vacuum pump RV3 A652-01-903, BOC Edwards, West Sussex, UK). Each flap was digested for 2.5 hours at 65° C. with 2.5 units/ml of papain (from Papaya latex, Sigma) in 1 ml of papain buffer [BBBS (pH 7.0-7.2), 2 mM L-cysteine and 2 mM EDTA]. Papain digests were centrifuged for 5 seconds at 2200×G (Mini centrifuge 05-090-100, Fisher Scientific), diluted 0.5 times with BBBS and fluorescence of the solutions was measured with excitation of λex=360 nm in a QM-40 Spectrofluorometer (Photon Technology Int., London, Ontario, Canada). The fluorescence of the papain buffer was taken into account by measuring fluorescence in the absence of tissue and subtracting this value from the fluorescence of the samples.
This method was used because the non-enzymatic cross-link density in collagens was previously quantified with use of papain digest fluorescence. There is a linear relationship between fluorescence and increasing cross-linking activity.
Corneal flaps were soaked in either distilled water or diluted H2O2 (1%) for 20 minutes. Flaps soaked in H2O2 were either rinsed twice with distilled water or removed from H2O2 and placed in 0.1% FeSO4 solution in distilled water for an additional 20 minute soak followed by a 2× rinse with distilled water. Flaps were dried in a vacuum until the weight change became less than 10% (Rotary vane vacuum pump RV3 A652-01-903, BOC Edwards, West Sussex, UK). Each flap was digested for 2.5 hours at 65° C. with 2.5 units/ml of papain (from Papaya latex, Sigma) in 1 ml of papain buffer [BBBS (pH 7.0-7.2), 2 mM L-cysteine and 2 mM EDTA]. Papain digests were centrifuged for 5 seconds at 2200×G (Mini centrifuge 05-090-100, Fisher Scientific), diluted 0.5 times with BBBS and fluorescence of the solutions was measured with excitation of λex=360 nm in a QM-40 Spectrofluorometer (Photon Technology Int., London, Ontario, Canada). The fluorescence of the papain buffer was taken into account by measuring fluorescence in the absence of tissue and subtracting this value from the fluorescence of the samples.
Pig eyes were shipped overnight on ice from an abattoir (SiouxPreme, Sioux City, Iowa), rinsed in saline. Eyes were cleaned and epithelium was removed. […] If specified, eyes were placed in a beaker with a light oxygen stream for 2 minutes in the incubation chamber prior to irradiation. Corneas were pan-corneally irradiated with a top hat beam (3% root mean square) for the chosen time (4 or 8 minutes) with 365-nm light source (UV LED NCSU033B[T]; Nichia Co., Tokushima, Japan) at the chosen irradiance (30 mW/cm^2, pulsed or non-pulsed) which was measured with a power sensor (model PD-300-UV; Ophir, Inc., Jerusalem, Israel) at the corneal surface. Corneal flaps (approximately 200 μm thick) were excised from the eyes with aid of Intralase femtosecond laser (Abbot Medical Optics, Santa Ana, Calif.).

corneal collagen [2] = assay: Biaxial extensometry (tensiometry) of corneal flaps; design: species or system Pig; settings: for displacement-force (corneal stiffness): 1% solution in dH2O; for displacement vs. force (corneal stiffening): 30 mW/cm^2, pulsed 1 s on/1 s off, 8 min, oxygen, vs unexposed controls
Procedure: Pig eyes were shipped overnight on ice from an abattoir (SiouxPreme, Sioux City, Iowa), rinsed in saline. Eyes were cleaned and epithelium was removed. […] If specified, eyes were placed in a beaker with a light oxygen stream for 2 minutes in the incubation chamber prior to irradiation. Corneas were pan-corneally irradiated with a top hat beam (3% root mean square) for the chosen time (4 or 8 minutes) with 365-nm light source (UV LED NCSU033B[T]; Nichia Co., Tokushima, Japan) at the chosen irradiance (30 mW/cm^2, pulsed or non-pulsed) which was measured with a power sensor (model PD-300-UV; Ophir, Inc., Jerusalem, Israel) at the corneal surface. Corneal flaps (approximately 200 μm thick) were excised from the eyes with aid of Intralase femtosecond laser (Abbot Medical Optics, Santa Ana, Calif.). The average thickness of the corneal flaps was calculated as a difference between the measurements before and after the excision from the eyes with an ultrasonic Pachymeter (DGH Technology, Exton, Pa.). The flaps were placed into a biaxial extensometer (CellScale Biotester 5000, Waterloo, ON), using biorake attachments with 5 tines spanning a width of 3 mm. Each sample was stretched at a constant rate of 4 μm/s in saline at 37° C. until sample failure. The flaps were washed with distilled water 2 times, dried with filter paper, washed with dH2O two times, and then dried in a vacuum until the weight change became less than 10% (Rotary vane vacuum pump RV3 A652-01-903, BOC Edwards, West Sussex, UK). Each flap was digested for 2.5 hours at 65° C. with 2.5 units/ml of papain (from Papaya latex, Sigma) in 1 ml of papain buffer [BBBS (pH 7.0-7.2), 2 mM L-cysteine and 2 mM EDTA]. Papain digests were centrifuged for 5 seconds at 2200×G (Mini centrifuge 05-090-100, Fisher Scientific), diluted 0.5 times with 1XBBBS and fluorescence of the solutions was measured with excitation of λex=360 nm in a QM-40 Spectrofluorometer (Photon Technology Int., London, Ontario, Canada). The fluorescence of the papain buffer was taken into account by measuring fluorescence in the absence of tissue and subtracting this value from the fluorescence of the samples.
Pig eyes were shipped overnight on ice from an abattoir (SiouxPreme, Sioux City, Iowa), rinsed in saline. Eyes were cleaned and epithelium was removed. […] Corneas were pan-corneally irradiated with a top hat beam (3% root mean square) for 4 minutes with 365-nm light source (UV LED NCSU033B[T]; Nichia Co., Tokushima, Japan) at irradiance 30 mW/cm^2, which was measured with a power sensor (model PD-300-UV; Ophir, Inc., Jerusalem, Israel) at the corneal surface. Corneal flaps (approximately 200 μm thick) were excised from the eyes with aid of Intralase femtosecond laser (Abbott Medical Optics, Santa Ana, Calif.). The average thickness of the corneal flaps was calculated as a difference between the measurements before and after the excision from the eyes with an ultrasonic Pachymeter (DGH Technology, Exton, Pa.). The flaps were then placed into a biaxial extensometer (CellScale Biotester 5000, Waterloo, ON), using biorake attachments with 5 tines spanning a width of 3 mm. Each sample was stretched at a constant rate of 4 μm/s in saline at 37° C. until sample failure. The flaps were washed with distilled water, dried in a vacuum until the weight change became less than 10% (Rotary vane vacuum pump RV3 A652-01-903, BOC Edwards, West Sussex, UK). Each flap was digested for 2.5 h at 65° C. with 2.5 units/ml of papain (from Papaya latex, Sigma) in 1 ml of papain buffer [BBBS (pH 7.0-7.2), 2 mM L-cysteine and 2 mM EDTA]. Papain digests were centrifuged for 5 seconds at 2200×G (Mini centrifuge 05-090-100, Fisher Scientific), diluted 0.5 times with 1XBBBS and fluorescence of the solutions was measured with excitation of λex=360 nm in a QM-40 Spectrofluorometer (Photon Technology Int., London, Ontario, Canada).

[3] = Solubility of folic acid in phosphate buffer; assay type: physicochemical; settings: pH 7, aqueous buffer, 25° C., pH of the final solution 7.0
Source text: FA is soluble in water with dependence on pH and temperature. […] FA has UV light absorbance at 400 nm and below (the long wave peak at 360 nm as shown in FIG. 16), and fluorescence with maximum around 460 nm (as shown in FIG. 17).

Chain of human serum albumin (P02768 25-609): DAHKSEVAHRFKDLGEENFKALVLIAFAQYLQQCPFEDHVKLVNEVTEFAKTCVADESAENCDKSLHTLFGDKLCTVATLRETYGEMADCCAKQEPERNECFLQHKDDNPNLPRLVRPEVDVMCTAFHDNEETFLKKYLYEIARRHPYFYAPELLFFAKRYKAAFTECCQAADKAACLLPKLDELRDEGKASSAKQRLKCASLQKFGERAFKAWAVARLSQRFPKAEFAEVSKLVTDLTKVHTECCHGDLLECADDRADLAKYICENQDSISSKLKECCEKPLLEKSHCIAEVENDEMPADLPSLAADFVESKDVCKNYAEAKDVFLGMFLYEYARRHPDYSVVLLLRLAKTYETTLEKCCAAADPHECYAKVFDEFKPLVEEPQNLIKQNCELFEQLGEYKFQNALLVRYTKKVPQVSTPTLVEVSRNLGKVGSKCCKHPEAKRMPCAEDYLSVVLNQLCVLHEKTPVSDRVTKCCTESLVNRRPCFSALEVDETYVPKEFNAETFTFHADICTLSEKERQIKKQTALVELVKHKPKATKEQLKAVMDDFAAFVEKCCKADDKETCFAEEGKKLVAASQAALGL

Molecule: Cc1c(C(=O)NCCO)[n+]([O-])c2ccccc2[n+]1[O-] [Olaquindox, N-(2-hydroxyethyl)-3-methyl-2-quinoxalinecarboxamide 1,4-dioxide]
time to complete disappearance on irradiation (human serum albumin): ≤ 20 s | relative fluorescence recorded at 450 nm (corneal collagen [1]; 0.4% in PBS, UVA 30 mW/cm2, 4 min CW or 8 min pulsed + O2, vs non-irradiated control): acquired fluorescence at 450 nm | biaxial extensiometry (corneal collagen stiffness) (corneal collagen [2]; 0.4% in PBS, UVA 30 mW/cm2, 4 min CW or 8 min pulsed + O2, vs controls): became stiffer

Molecule: hydrogen peroxide [H2O2]
fluorescence counts of papain digested corneal flaps (corneal collagen [1]; flaps soaked 20 min in 1% H2O2, with or without a further 20 min in 0.1% Iron(II) (FeSO4), no UV): not when they were exposed to only H2O2

Molecule: Cc1cc2nc(C(=O)[O-])c(=O)n(C[C@H](O)[C@H](O)[C@H](O)CO)c2cc1C.O.[Na+] [sodium salt of 1,2-Dihydro-6,7-dimethyl-2-keto-1-D-ribityl-3-quinoxalinecarboxylic acid monohydrate]
fluorescence of the digested corneas in the area 450 nm (corneal collagen [1]; 0.1% in BBBS): elevated fluorescence in the area 450 nm | fluorescence of the digested corneal flaps (excitation 360 nm) (corneal collagen [1]; 0.1% in BBBS, de-oxygenated with argon, irradiated 4 min at 30 mW/cm^2 in CO2 atmosphere): higher than the fluorescence of the corneal flaps cross-linked with riboflavin

Second part, led by results:

displacement-force (corneal stiffness) (corneal collagen [2]; UV 365 nm, 30 mW, 4 min): increase of the corneal stiffness | displacement-force (corneal stiffness) (corneal collagen [2]; without UV light): does not cross-link corneal flaps
Molecule: CC(=O)C(C)=O [2,3-butanedione]
fluorescence (relative to the untreated controls, Fo) recorded at 450 nm (corneal collagen [1]; UV 365 nm, 30 mW, 4 min): increase of the corneal stiffness and fluorescence output | fluorescence (relative to the untreated controls, Fo) recorded at 450 nm (corneal collagen [1]; without UV light): does not cross-link corneal flaps

displacement vs. force (corneal stiffening) (corneal collagen [2]; UV 365 nm): significant stiffening | average force vs. displacement of corneal flap (tensiometry) (corneal collagen [2]; vs control group, UVA 30 mW/cm^2, 4 min, CW): higher than the control group
Molecule: Cc1cc2nc3c(=O)[nH]c(=O)nc-3n(C[C@H](O)[C@H](O)[C@H](O)CO)c2cc1C [riboflavin]
fluorescence of the digested corneas in the area 450 nm (corneal collagen [1]; 0.1% in BBBS): elevated fluorescence in the area 450 nm | fluorescence of the corneal samples after digestion with papain (excitation 360 nm) (corneal collagen [1]; UV 365 nm): fluorescence of the cross-linked collagen samples increases

solubility [3]: 5500 µg/mL (≈ 12.5 mM) | displacement vs. force (corneal stiffening) (corneal collagen [2]; UV 365 nm): significant stiffening
Molecule: Nc1nc2ncc(CNc3ccc(C(=O)N[C@@H](CCC(=O)O)C(=O)O)cc3)nc2c(=O)[nH]1 [FA, Folic acid]
fluorescence of the corneal samples after digestion with papain (excitation 360 nm) (corneal collagen [1]; UV 365 nm): fluorescence of the cross-linked collagen samples increases
